# Results: PubChem BioAssay (NCI)
#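 Results reflect a 48-hour exposure of cells in 96-well plates to compound at five concentrations. At the TGI there is no net growth.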
# Experiments:
# Test in all cases: DTP human tumour cell line panel, 48 h
# [1] = test system: A498 renal
# [2] = test system: ACHN renal
# [3] = test system: BT-549 breast
# [4] = test system: DU-145 prostate
# [5] = test system: EKVX NSCLC
# [6] = test system: HCC-2998 colon
# [7] = test system: HCT-116 colon
# [8] = test system: HCT-15 colon
# [9] = test system: HL-60(TB) leukemia
# [10] = test system: HOP-62 NSCLC
# [11] = test system: HOP-92 NSCLC
# [12] = test system: HT29 colon
# [13] = test system: KM12 colon
# [14] = test system: M14 melanoma
# [15] = test system: MCF7 breast
# [16] = test system: MDA-MB-435
# [17] = test system: MDA-N
# [18] = test system: MOLT-4 leukemia
# [19] = test system: NCI-H226 lung
# [20] = test system: OVCAR-3 ovarian
# [21] = test system: OVCAR-5 ovarian
# [22] = test system: OVCAR-8 ovarian
# [23] = test system: PC-3 prostate
# [24] = test system: RXF 393 renal
# [25] = test system: SF-295 CNS
# [26] = test system: SF-539 CNS
# [27] = test system: SK-MEL-5 melanoma
# [28] = test system: SN12C renal
# [29] = test system: SNB-19 CNS
# [30] = test system: SR leukemia
# [31] = test system: SW-620 colon
# [32] = test system: T-47D breast
# [33] = test system: TK-10 renal
# [34] = test system: U251 CNS
# [35] = test system: UACC-62 melanoma
# [36] = test system: UO-31 renal
# [37] = test system: 786-0 renal
# [38] = test system: A549 NSCLC
# [39] = test system: CAKI-1 renal
# [40] = test system: CCRF-CEM leukemia
# [41] = test system: COLO 205 colon
# [42] = test system: HS 578T breast
# [43] = test system: IGROV1 ovarian
# [44] = test system: K-562 leukemia
# [45] = test system: LOX IMVI melanoma
# [46] = test system: MALME-3M melanoma
# [47] = test system: MDA-MB-231 breast
# [48] = test system: NCI-H23 lung
# [49] = test system: NCI-H460 lung
# [50] = test system: NCI/ADR-RES ovarian
# [51] = test system: OVCAR-4 ovarian
# [52] = test system: RPMI-8226 leukemia
# [53] = test system: SF-268 CNS
# [54] = test system: SK-MEL-2 melanoma
# [55] = test system: SK-MEL-28 melanoma
# [56] = test system: SK-OV-3 ovarian
# [57] = test system: UACC-257 melanoma
smiles,measurement,setting,value
CCN(CC)CCCC(C)Nc1cc(/C=C/c2ccc(Cl)cc2)nc2cc(N(C)C)ccc12 (stereo not given),TGI,[1],3.12 µM
same,TGI,[2],4.42 µM
same,TGI,[3],3.01 µM
same,TGI,[4],3.21 µM
same,TGI,[5],3.34 µM
same,TGI,[6],3.57 µM
same,TGI,[7],2.49 µM
same,TGI,[8],3.17 µM
same,TGI,[9],3.54 µM
same,TGI,[10],3.4 µM
same,TGI,[11],3.16 µM
same,TGI,[12],2.65 µM
same,TGI,[13],3.26 µM
same,TGI,[14],3.09 µM
same,TGI,[15],3.39 µM
same,TGI,[16],3.06 µM
same,TGI,[17],3.01 µM
same,TGI,[18],3.01 µM
same,TGI,[19],11.6 µM
same,TGI,[20],3.49 µM
same,TGI,[21],3.37 µM
same,TGI,[22],3.41 µM
same,TGI,[23],2.78 µM
same,TGI,[24],3.06 µM
same,TGI,[25],3.33 µM
same,TGI,[26],4.65 µM
same,TGI,[27],4.34 µM
same,TGI,[28],3.25 µM
same,TGI,[29],3.3 µM
same,TGI,[30],2.85 µM
same,TGI,[31],2.69 µM
same,TGI,[32],3.55 µM
same,TGI,[33],3.54 µM
same,TGI,[34],3.19 µM
same,TGI,[35],6.54 µM
same,TGI,[36],3.55 µM
Cc1ccc(-c2cc(-c3c(C)nn(C)c(=O)c3N)[nH]n2)cc1,TGI,[37],> 100 µM
same,TGI,[1],> 100 µM
same,TGI,[38],> 100 µM
same,TGI,[2],> 100 µM
same,TGI,[39],> 100 µM
same,TGI,[40],> 100 µM
same,TGI,[41],> 100 µM
same,TGI,[4],> 100 µM
same,TGI,[5],> 100 µM
same,TGI,[6],> 100 µM
same,TGI,[7],> 100 µM
same,TGI,[8],> 100 µM
same,TGI,[9],> 100 µM
same,TGI,[11],> 100 µM
same,TGI,[42],> 100 µM
same,TGI,[12],> 100 µM
same,TGI,[43],> 100 µM
same,TGI,[44],> 100 µM
same,TGI,[13],> 100 µM
same,TGI,[45],> 100 µM
same,TGI,[14],> 100 µM
same,TGI,[46],> 100 µM
same,TGI,[15],> 100 µM
same,TGI,[47],> 100 µM
same,TGI,[16],> 100 µM
same,TGI,[17],> 100 µM
same,TGI,[18],> 100 µM
same,TGI,[19],> 100 µM
same,TGI,[48],> 100 µM
same,TGI,[49],> 100 µM
same,TGI,[50],> 100 µM
same,TGI,[20],> 100 µM
same,TGI,[51],> 100 µM
same,TGI,[21],> 100 µM
same,TGI,[22],> 100 µM
same,TGI,[23],> 100 µM
same,TGI,[52],> 100 µM
same,TGI,[24],> 100 µM
same,TGI,[53],> 100 µM
same,TGI,[25],> 100 µM
same,TGI,[26],> 100 µM
same,TGI,[54],> 100 µM
same,TGI,[55],> 100 µM
same,TGI,[27],> 100 µM
same,TGI,[56],> 100 µM
same,TGI,[28],> 100 µM
same,TGI,[29],> 100 µM
same,TGI,[30],> 100 µM
same,TGI,[31],> 100 µM
same,TGI,[32],> 100 µM
same,TGI,[33],> 100 µM
same,TGI,[34],> 100 µM
same,TGI,[57],> 100 µM
same,TGI,[35],> 100 µM
